Here are results for one compound from publication PMC5095700 (Biochemistry, 2016).

The assay addresses T1, Glucosamine/glucosaminide N-acetyltransferase (GlmA) (Clostridium acetobutylicum, UniProt Q97ML2, Y297F).
T1 sequence (Q97ML2 1-320 Y297F): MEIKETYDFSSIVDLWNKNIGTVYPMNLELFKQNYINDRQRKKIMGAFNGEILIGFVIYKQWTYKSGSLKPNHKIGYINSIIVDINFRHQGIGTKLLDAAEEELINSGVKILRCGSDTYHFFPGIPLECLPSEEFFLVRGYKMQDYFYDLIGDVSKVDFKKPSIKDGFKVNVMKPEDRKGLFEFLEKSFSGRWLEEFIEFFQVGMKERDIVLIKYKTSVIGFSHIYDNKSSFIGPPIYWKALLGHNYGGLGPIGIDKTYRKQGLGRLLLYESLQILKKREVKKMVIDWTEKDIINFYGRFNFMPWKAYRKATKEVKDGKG
Kind of assay: X-ray crystal structure of Y297F variant. Type of assay: binding.

Turning to `CC(=O)SCCNC(=O)CCNC(=O)[C@H](O)C(C)(C)COP(=O)(O)OP(=O)(O)OC[C@H]1O[C@@H](n2cnc3c(N)ncnc32)[C@H](O)[C@@H]1OP(=O)(O)O` [AcCoA, acetyl CoA], the “X-ray crystal structure of Y297F variant (1.8 Å)” value is on record as “electron density was clearly visible for the acetyl group of the cofactor bound in the C-terminal domain”.
